Values of other authors as cited in patent US8557844B2, “Substrate reduction therapy” (The Chancellor, Masters and Scholars of the University of …, priority 2007, dated 2013).
Entries after “also recorded” stand apart in the source; their conditions may differ.

Experiments:
[1] = tested on: free cholesterol storage and abnormal lipid endocytosis; details: cited from earlier work
GSL levels = details: mice; cited from earlier work
[2] = cited from earlier work
[3] = tested on: NPC1 null (CT43) CHO cells; details: NB-DNJ treatment; cited from earlier work
[4] = tested on: NPC1 null (CT43) CHO cells; details: NB-DNJ treatment; cited from earlier work; remark: listed apart in the source
[5] = tested on: peripheral blood B lymphocytes; details: NPC patient, B cells over 6 months; cited from earlier work
[6] = interim data after 12 months of a 2-year trial; cited from earlier work
mammalian cells = details: liposomes of dioleoylphosphatidylethanolamine and cholesteryl hemisuccinate; cited from earlier work
sialyltransferase = details: cited from earlier work
[7] = biological target: T1, human α-1,3-fucosyltransferase V (Homo sapiens, UniProt Q11128); details: in the presence of guanosine diphosphate (GDP); cited from earlier work
T1 sequence (Q11128 1-374): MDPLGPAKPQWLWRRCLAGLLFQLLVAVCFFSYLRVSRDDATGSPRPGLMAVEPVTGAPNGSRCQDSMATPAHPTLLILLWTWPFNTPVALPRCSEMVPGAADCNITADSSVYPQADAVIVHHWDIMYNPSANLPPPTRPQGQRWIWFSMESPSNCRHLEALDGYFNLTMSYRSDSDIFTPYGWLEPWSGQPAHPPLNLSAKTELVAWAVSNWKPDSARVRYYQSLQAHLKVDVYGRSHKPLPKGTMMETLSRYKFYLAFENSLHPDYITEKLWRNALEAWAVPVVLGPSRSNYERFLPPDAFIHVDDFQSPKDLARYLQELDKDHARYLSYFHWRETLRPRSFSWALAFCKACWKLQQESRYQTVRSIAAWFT

rat recombinant α-2,3-ST = details: rat recombinant enzyme; read-out: IC(50), α-2,3-ST; cited from earlier work
rat recombinant α-2,6-ST = biological target: T2, rat recombinant α-2,6-ST (Rattus norvegicus, UniProt P13721); details: rat recombinant enzyme; read-out: IC(50), α-2,6-ST; cited from earlier work
T2 sequence (P13721 1-403): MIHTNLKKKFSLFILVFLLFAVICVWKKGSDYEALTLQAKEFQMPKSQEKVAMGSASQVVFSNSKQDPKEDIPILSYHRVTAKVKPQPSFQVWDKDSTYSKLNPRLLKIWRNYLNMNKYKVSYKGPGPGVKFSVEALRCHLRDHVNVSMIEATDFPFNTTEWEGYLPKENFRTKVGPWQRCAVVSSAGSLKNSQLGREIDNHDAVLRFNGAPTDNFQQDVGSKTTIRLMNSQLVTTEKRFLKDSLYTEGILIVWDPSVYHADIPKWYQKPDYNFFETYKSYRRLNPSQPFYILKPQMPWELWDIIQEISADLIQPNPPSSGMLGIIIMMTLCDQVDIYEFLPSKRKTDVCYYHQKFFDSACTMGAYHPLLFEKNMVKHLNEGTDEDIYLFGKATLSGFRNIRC

In the case of `CC(C)CCC[C@@H](C)[C@H]1CC[C@H]2[C@@H]3C(=O)C=C4C[C@@H](O)CC[C@]4(C)[C@H]3CC[C@]12C` [7-ketocholesterol], the “free cholesterol storage and lipid endocytosis” value [1] is listed as “induce free cholesterol storage and abnormal lipid endocytosis”.
In the case of `CCN(CC)CCO[C@H]1CC[C@@]2(C)C(=CC[C@@H]3[C@@H]2CC[C@]2(C)C(=O)CC[C@@H]32)C1` [Compound U18666A], the “free cholesterol storage and lipid endocytosis” value [1] is listed as “induce free cholesterol storage and abnormal lipid endocytosis” and the “induction of NPC1 phenotype” value [1] is listed as “can induce an NPC1 phenotype”.
In the case of `CCCCN1C[C@H](O)[C@@H](O)[C@H](O)[C@H]1CO` [NB-DNJ, N-butyldeoxynojirimycin], the “decrease in GSL levels (onset)” value (GSL levels) is given as “measurable decrease in GSL levels within a day of treatment”, the “treatment time after which effect on GSL levels stabilizes” value (GSL levels) is given as 10 days and the neurological side effects ([2]; adult mice) is given as “not to cause neurological side effects”. For the same molecule, the CNS penetration ([2]; mouse, in vivo) was “penetrate the CNS”, the “effects on behaviour or CNS development” value ([2]; mouse, in vivo) was “without significant effects on behaviour or CNS development” and the “GSL storage in NPC1 cells” value [3] was “reduction in GSL storage in the endo/lysosomal system; also recorded: lowers GSL storage in NPC1 cells to control levels”. The “endocytosis in NPC1 cells” value [4] was “corrects abnormal endocytosis”, the endosomal uptake [5] was “improved endosomal uptake” and the “lipid trafficking in peripheral blood B lymphocytes” value [5] was “greatly improved”. The pathological lipid storage [5] was “reduced”, the “total late endosomal/lysosomal compartment” value [5] was “almost normalised” and the “clinical benefit, saccadic eye movement” value [6] was “stabilization or improvement in saccadic eye movement”. The “factor by which liposomes reduced the required dose” value (mammalian cells) was 1000.
For `C[C@@H]1O[C@@H](O[C@H]2[C@H](O[C@H]3[C@H](O[C@H]4CC[C@@]5(C)[C@@H](CC[C@]6(C)[C@@H]5CC=C5[C@@H]7CC(C)(C)C[C@@H](O)[C@]7(C)CC[C@]56C)[C@@]4(C)CO)O[C@H](C(=O)O)[C@@H](O)[C@@H]3O)O[C@H](CO)[C@H](O)[C@@H]2O)[C@H](O)[C@H](O)[C@H]1O` [Soyasaponin I], the sialyltransferase inhibition (sialyltransferase) is given as “potent and specific sialyltransferase inhibitor”.
In the case of `CN(C)CCCN1c2ccccc2CCc2ccccc21` [imipramine], the “free cholesterol storage and lipid endocytosis” value [1] is listed as “induce free cholesterol storage and abnormal lipid endocytosis”.
For `CC(=O)[C@H]1CC[C@H]2[C@@H]3CCC4=CC(=O)CC[C@]4(C)[C@H]3CC[C@]12C` [progesterone], the “free cholesterol storage and lipid endocytosis” value [1] is given as “induce free cholesterol storage and abnormal lipid endocytosis” and the “induction of NPC1 phenotype” value [1] is given as “can induce an NPC1 phenotype”.
For `CCCO[C@H]1O[C@H](CO)[C@@H](O[C@@H]2O[C@H](CO)[C@H](O)[C@H](O)[C@H]2O)[C@H](OCCN2C(C)C(O)C(O)C(O)C2CO)[C@H]1NC(C)=O` (stereo partly drawn) [propyl 2-acetamido-2-deoxy-4-O-(β-D-galactopyranosyl)-3-O-(2-(N-(β-L-homofuconojirimycinyl))ethyl)-α-D-glucopyranoside], the “inhibition of human α-1,3-fucosyltransferase V” value [7] is given as “effective inhibitor”.
In the case of cytidin-5′-yl sialylethylphosphonate, the IC50 (rat recombinant α-2,3-ST) is listed as 47 µM and the IC50 (rat recombinant α-2,6-ST) is listed as 340 µM.
